The numbers were not newly measured in paper PMC4907212, “Mucosal and blood-brain barrier transport kinetics of the plant N-alkylamide spilanthol using in vitro and in vivo models” (BMC Complementary and Alternative Medicine, 2016), which cites them from elsewhere.

Details of this data set: method as in PMID 19399718. Particulars: plasma, oral gavage in rats; cited from earlier work.

In the case of “dodeca-2E,4E,8E,10E/Z-tetraenoic acid isobutylamides”, the elimination half-life was 1.2 h.
